The results in this text go back to patent US20230150986A1, “ANTAGONISTS OF THE MUSCARINIC ACETYLCHOLINE RECEPTOR M4” (Vanderbilt University, priority 2019, published 2023).

What all share (format): in vitro ADME
In data set [1] the target is T1, cytochrome P450 1A2 (Homo sapiens, UniProt P05177).
T1 construct: human liver microsomes (HLM; 0.1 mg/mL); from tissue; host or cells: human liver microsomes
T1 sequence (P05177 1-516): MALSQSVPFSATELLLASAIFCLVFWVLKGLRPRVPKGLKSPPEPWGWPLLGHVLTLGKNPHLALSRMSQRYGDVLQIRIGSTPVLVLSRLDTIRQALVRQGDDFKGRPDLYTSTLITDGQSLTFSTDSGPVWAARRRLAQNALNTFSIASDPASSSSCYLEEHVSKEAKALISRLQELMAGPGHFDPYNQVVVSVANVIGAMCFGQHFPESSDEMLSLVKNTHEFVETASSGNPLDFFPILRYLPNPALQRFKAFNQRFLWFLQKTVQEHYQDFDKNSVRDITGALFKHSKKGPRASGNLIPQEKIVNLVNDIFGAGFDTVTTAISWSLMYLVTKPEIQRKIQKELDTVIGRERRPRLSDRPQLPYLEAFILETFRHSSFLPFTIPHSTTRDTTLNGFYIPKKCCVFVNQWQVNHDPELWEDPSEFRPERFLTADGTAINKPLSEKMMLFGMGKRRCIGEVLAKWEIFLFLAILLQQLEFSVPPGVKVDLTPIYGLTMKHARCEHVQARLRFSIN
Description: Cytochrome P450 cocktail inhibition assay, 1A2 (phenacetin). The note with it: human liver microsomes 0.1 mg/mL; read-out: CYP Inhibition (1A2). The protocol: (§1) Solutions of substrates for cytochrome P450 enzymes (1A2: Phenacetin, 10 μM; 2C9: Diclofenac, 5 μM; 2D6: Dextromethorphan, 5 μM; 3A4: Midazolam, 2 μM; as a mixture), test compound (VU6028418; multiple concentrations), and the positive control for pan-P450 inhibition (miconazole; multiple concentrations) were prepared. A reaction mixture of assay buffer (100 mM Kpi at pH 7.4), human liver microsomes (HLM; 0.1 mg/mL), and the substrate mixture were aliquoted into a 96-deepwell plate. The test compound and control were then added to the plate such that the final concentration of test compound ranged from 0.1-30 μM (two replicates per concentration). The assay plate was vortexed (briefly) and pre-incubated at 37° C. in an orbital shaker for 15 minutes. The reaction was initiated by addition of NADPH (1 mM, final concentration) and continued for 8 min before it was quenched by acetonitrile (2× volume) containing an LCMS internal standard (carbamazepine, 50 nM). The plate was then centrifuged (4000 rcf, 4° C., 10 min), and the resulting supernatant was diluted with water (1× volume) for LC-MS/MS. Assay samples were analyzed via electrospray ionization on an AB Sciex API-4000 (Foster City, Calif.) triple-quadrupole mass spectrometer coupled to Agilent Technologies 1290 Infinity series pumps (Santa Clara, Calif.), and a Leap Technologies CTC PAL auto -sampler (Carrboro, NC). Analytes were separated by gradient elution on a Phenomenex Kinetex (C18 2.1×50 mm 5 μm) column (Torrance, Calif.) thermostated at 40° C. The HPLC mobile phase A was 0.1% formic acid in water (pH unadjusted), and the mobile phase B was 0.1% formic acid in acetonitrile (pH unadjusted). […] The total run time was 2.5 min and the HPLC flow rate was 0.5 mL/min. The source temperature was set at 500° C. and mass spectral analyses were performed using multiple reaction monitoring (MRM) with mass transitions specific to each substrate's metabolite utilizing a Turbo-Ionspray® source in positive ionization mode (5.0 kV spray voltage). The test compound and control IC50 values for each enzyme were obtained by quantitating the inhibition of metabolite formation for each substrate. A 0 μM test compound (or control) conditions represented 100% enzymatic activity, and the effect of increasing test compound concentrations on enzymatic activity was then calculated from the % of control activity. Inhibition curves were fitted using XLfit 5.2.2 (four-parameter logistic model, equation 201) in order to calculate the concentration that produced half-maximal inhibition (IC50) of each enzyme.

Data set [2] concerns the target T2, cytochrome P450 2C9 (Homo sapiens, UniProt P11712).
T2 construct: human liver microsomes (HLM; 0.1 mg/mL); from tissue; host or cells: human liver microsomes
As to the kind of experiment: Cytochrome P450 cocktail inhibition assay, 2C9 (diclofenac). The settings on record: human liver microsomes 0.1 mg/mL; read-out: CYP Inhibition (2C9). The protocol: as §1
A general note: Liver microsomes are a subcellular fraction often used to study metabolism.

Data set [3] concerns the target T3, cytochrome P450 2D6 (Homo sapiens, UniProt P10635).
T3 construct: human liver microsomes (HLM; 0.1 mg/mL); from tissue; host or cells: human liver microsomes
Description: Cytochrome P450 cocktail inhibition assay, 2D6 (dextromethorphan). The settings on record: human liver microsomes 0.1 mg/mL; read-out: CYP Inhibition (2D6). As to the method: as §1

Data set [4] deals with T4, cytochrome P450 3A4 (Homo sapiens, UniProt P08684).
T4 construct: human liver microsomes (HLM; 0.1 mg/mL); from tissue; host or cells: human liver microsomes
T4 sequence (P08684 whole entry): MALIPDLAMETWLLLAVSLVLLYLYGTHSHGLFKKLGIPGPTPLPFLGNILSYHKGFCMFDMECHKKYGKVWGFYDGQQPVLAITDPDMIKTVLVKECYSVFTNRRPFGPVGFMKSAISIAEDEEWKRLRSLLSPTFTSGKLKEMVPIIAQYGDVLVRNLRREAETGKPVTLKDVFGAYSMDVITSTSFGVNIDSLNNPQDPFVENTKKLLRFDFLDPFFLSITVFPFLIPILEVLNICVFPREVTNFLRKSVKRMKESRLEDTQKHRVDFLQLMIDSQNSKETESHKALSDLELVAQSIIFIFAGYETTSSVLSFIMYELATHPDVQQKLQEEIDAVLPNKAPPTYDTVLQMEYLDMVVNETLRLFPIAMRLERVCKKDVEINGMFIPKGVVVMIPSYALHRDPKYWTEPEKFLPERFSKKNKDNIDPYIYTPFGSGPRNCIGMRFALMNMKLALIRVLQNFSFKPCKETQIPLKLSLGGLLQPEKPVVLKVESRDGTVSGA
As to the kind of experiment: Cytochrome P450 cocktail inhibition assay, 3A4 (midazolam). The note with it: human liver microsomes 0.1 mg/mL; read-out: CYP Inhibition (3A4). The protocol: as §1

The target in data set [5] is T5, P-gp (Homo sapiens, UniProt P08183).
T5 construct: expressed in transfected cells; host or cells: MDR1-MDCK
T5 sequence (P08183 whole entry): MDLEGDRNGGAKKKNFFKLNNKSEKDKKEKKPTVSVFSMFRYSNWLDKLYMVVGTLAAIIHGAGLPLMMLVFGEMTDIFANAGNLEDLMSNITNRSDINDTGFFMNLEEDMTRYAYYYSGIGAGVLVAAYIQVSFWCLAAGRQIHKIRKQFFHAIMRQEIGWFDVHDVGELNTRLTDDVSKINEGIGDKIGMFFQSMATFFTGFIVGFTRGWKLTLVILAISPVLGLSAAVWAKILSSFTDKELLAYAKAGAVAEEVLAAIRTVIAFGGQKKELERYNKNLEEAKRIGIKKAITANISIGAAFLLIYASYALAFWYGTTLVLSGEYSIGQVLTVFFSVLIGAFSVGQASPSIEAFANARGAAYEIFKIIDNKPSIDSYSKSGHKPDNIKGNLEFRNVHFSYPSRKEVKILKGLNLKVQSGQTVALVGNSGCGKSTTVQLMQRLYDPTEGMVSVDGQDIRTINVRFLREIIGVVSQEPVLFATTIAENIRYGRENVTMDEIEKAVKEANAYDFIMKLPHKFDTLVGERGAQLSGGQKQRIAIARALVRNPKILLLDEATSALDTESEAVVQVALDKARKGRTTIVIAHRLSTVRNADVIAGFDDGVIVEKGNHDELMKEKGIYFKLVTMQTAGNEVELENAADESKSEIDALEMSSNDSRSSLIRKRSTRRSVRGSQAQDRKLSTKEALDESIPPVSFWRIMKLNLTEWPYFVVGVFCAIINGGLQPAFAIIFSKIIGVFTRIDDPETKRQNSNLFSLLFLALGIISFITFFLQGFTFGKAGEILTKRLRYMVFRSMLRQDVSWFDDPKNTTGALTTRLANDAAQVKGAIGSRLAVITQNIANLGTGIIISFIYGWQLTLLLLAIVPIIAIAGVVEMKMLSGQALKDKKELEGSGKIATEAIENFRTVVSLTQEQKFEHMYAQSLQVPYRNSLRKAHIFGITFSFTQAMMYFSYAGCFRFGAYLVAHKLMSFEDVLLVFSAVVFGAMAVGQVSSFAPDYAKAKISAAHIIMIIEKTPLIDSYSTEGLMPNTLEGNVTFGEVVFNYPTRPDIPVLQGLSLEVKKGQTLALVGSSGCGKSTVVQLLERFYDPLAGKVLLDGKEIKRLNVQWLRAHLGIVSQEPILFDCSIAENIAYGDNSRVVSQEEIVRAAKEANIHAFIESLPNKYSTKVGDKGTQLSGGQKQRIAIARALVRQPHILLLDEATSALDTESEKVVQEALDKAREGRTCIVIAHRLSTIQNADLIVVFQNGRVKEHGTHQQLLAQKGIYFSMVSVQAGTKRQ
As to the kind of experiment: P-gp efflux in MDR1-MDCK cell monolayers. The settings on record: dog, pH 7.4, MDCK-MDR1, 5 μM. As to the method:
MDR1-MDCK cell monolayers were grown to confluence on collagen-coated, microporous membranes in 12-well assay plates. The permeability assay buffer was Hanks' balanced salt solution containing 10 mM HEPES and 15 mM glucose at a pH of 7.4. The buffer in the receiver chamber also contained 1% bovine serum albumin. The dosing solution concentration was 5 μM of test article in the assay buffer. Cell monolayers were dosed on the apical side (A- to -B) or basolateral side (B- to -A) and incubated at 37° C. with 5% CO2 in a humidified incubator. Samples were taken from the donor and receiver chambers at 120 minutes Each determination was performed in duplicate. The flux of lucifer yellow was also measured post-experimentally for each monolayer to ensure no damage was inflicted to the cell monolayers during the flux period. All samples were assayed by LC-MS/MS using electrospray ionization.

The structures appear in SMILES notation.

T3 sequence (P10635 whole entry): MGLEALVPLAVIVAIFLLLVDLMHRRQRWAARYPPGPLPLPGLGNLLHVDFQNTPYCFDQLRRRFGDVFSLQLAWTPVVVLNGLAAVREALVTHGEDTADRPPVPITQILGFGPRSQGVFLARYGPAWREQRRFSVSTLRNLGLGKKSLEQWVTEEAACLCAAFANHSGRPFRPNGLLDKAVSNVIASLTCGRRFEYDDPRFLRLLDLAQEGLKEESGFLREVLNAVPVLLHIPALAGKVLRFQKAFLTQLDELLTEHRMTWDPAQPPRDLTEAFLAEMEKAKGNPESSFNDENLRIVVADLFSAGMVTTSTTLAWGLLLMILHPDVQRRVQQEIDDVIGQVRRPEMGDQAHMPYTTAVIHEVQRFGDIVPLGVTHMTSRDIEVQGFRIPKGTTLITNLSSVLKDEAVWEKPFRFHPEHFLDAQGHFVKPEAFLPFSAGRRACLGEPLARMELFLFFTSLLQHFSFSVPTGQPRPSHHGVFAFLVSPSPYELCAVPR
T2 sequence (P11712 whole entry): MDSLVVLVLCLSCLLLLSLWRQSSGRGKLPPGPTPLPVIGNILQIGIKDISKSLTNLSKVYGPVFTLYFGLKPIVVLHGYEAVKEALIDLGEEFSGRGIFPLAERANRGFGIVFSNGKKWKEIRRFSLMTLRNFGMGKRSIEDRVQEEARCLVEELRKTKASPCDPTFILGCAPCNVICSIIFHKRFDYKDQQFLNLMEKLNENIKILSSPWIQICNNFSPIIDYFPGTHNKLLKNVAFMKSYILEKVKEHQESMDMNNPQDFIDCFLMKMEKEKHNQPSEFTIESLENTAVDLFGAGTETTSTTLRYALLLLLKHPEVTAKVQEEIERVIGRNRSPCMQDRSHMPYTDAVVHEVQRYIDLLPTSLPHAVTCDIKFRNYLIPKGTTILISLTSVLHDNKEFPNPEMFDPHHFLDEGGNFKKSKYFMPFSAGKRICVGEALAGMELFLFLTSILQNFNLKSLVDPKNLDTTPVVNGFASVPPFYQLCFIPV

By efflux ratio is commonly meant a quotient of directional permeabilities that is used to spot active efflux. For `Fc1cc(F)c(F)c(-c2ccc(N[C@H]3C[C@@H]4CN(CC5CCOCC5)C[C@@H]4C3)nn2)c1` [Compound 1, (3aR,5s,6aS)-2-((tetrahydro-2H-pyran-4-yl)methyl)-N-(6-(2,3,5-trifluorophenyl)pyridazin-3-yl)octahydrocyclopenta[c]pyrrol-5-amine], the IC50 in data set [1] is above 30 µM; in data set [2], 9.8 µM; in data set [3], above 30 µM; in data set [4], above 30 µM. In addition, the efflux ratio at 120 min, 5 μM in data set [5] turned out to be 8.9.

As for `Fc1cc(F)c(F)c(-c2ccc(N[C@H]3C[C@@H]4CN(Cc5ccccn5)C[C@@H]4C3)nn2)c1` [Compound 2, (3aR,5s,6aS)-2-(pyridin-2-ylmethyl)-N-(6-(2,3,5-trifluorophenyl)pyridazin-3-yl)octahydrocyclopenta[c]pyrrol-5-amine], the IC50 in data set [1] is 22.6 µM; in data set [2], above 30 µM; in data set [3] it was above 30 µM; in data set [4], above 30 µM. For the same compound, in data set [5], the efflux ratio at 120 min, 5 μM was found to be 2.6.
